Legend:
[1] = target: T1, S1P2 (Homo sapiens, UniProt O95136); assay: S1P2 values marked (33P S1P); assay type: binding; conditions: value marked (33P S1P)
[2] = target: T2, S1P1 (Homo sapiens, UniProt P21453); assay: FLIPR calcium assay, cells expressing S1P1 and a G-protein; assay type: cell-based
T2 construct: expressed in transfected cells
Experimental: (§1) After removal of excess dye by washing, the cells are placed in the FLIPR TETRA instrument. Baseline fluorescence readings are taken prior to addition the compound to be tested. Agonists will trigger the receptor to interact with the G-protein, leading to an increase in intracellular calcium. The increase in intracellular calcium causes an increase in the fluorescence of the cells, due to the presence of fluo-4. This fluorescence increase is recorded by the FLIPR TETRA. After the calcium transient signal has decreased towards baseline, the standard agonist sphingosine 1-phosphate is added. If the test compound is an antagonist, an initial calcium signal will not be generated and the antagonist will prevent the generation of a calcium signal from sphingosine 1-phosphate.

[3] = target: T3, S1P3 (Homo sapiens, UniProt Q99500); assay: FLIPR calcium assay, cells expressing S1P3 and a G-protein; assay type: cell-based
T3 construct: expressed in transfected cells
Experimental: as §1

[4] = target: T1, S1P2; assay: FLIPR calcium assay, cells expressing S1P2 and a G-protein; assay type: cell-based; conditions: for FLIPR (% Antagonism) S1P2: antagonism versus sphingosine 1-phosphate
Experimental: as §1

T1 sequence (O95136 whole entry, species assumed): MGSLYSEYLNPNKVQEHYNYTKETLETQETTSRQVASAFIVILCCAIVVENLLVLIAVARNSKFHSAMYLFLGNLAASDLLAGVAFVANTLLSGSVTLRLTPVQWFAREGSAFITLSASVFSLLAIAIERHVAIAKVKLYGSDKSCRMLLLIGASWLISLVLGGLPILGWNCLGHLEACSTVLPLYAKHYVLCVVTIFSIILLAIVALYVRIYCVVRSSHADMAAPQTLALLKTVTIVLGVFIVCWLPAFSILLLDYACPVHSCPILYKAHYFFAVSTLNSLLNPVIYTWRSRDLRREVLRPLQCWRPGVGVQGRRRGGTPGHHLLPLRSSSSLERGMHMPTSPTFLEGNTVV
T3 sequence (Q99500 whole entry, species assumed): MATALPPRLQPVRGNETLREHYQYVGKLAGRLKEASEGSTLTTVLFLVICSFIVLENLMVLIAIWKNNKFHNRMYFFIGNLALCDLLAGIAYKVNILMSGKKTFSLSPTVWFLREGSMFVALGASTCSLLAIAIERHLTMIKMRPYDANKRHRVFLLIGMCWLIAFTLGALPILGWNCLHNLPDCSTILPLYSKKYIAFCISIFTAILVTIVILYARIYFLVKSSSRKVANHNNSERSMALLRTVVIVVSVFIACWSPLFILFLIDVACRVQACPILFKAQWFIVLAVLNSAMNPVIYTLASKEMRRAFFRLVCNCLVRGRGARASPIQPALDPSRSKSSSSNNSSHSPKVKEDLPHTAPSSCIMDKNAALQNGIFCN
T2 sequence (P21453 whole entry, species assumed): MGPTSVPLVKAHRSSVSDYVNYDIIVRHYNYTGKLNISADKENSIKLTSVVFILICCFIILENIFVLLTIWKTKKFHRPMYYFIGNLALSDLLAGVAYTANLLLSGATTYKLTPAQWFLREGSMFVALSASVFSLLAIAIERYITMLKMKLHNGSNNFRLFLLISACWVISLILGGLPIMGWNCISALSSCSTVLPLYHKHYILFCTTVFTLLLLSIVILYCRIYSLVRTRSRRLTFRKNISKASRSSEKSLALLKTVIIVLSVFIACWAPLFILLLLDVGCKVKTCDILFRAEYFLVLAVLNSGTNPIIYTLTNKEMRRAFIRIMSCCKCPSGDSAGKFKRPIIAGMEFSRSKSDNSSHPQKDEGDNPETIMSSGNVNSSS

EC50 [1] | EC50 [2] | EC50 [3] | EC50 [4] | FLIPR (% Antagonism) S1P2 [4] | Molecule
23.8 nM | > 8300 nM | > 8300 nM | 118 nM | (91) % | Cc1nn(C)c2c(C(C)C)cc(CNC(=O)Nc3cc(Cl)nc(Cl)c3)nc12 [Example 2, 1-(2,6-dichloropyridin-4-yl)-3-((7-isopropyl-1,3-dimethyl-1H-pyrazolo[4,3-b]pyridin-5-yl)methyl)urea]
5.7 nM | > 8300 nM | > 8300 nM | 8 nM | (99) % | CCCCc1cc(NC(=O)NNc2cc(C(C)C)c3c(n2)c(C)nn3C)cc(Cl)n1 [Example 3, N-(2-butyl-6-chloropyridin-4-yl)-2-(7-isopropyl-1,3-dimethyl-1H-pyrazolo[4,3-b]pyridin-5-yl)hydrazinecarboxamide]
1.5 nM | > 8300 nM | > 8300 nM | – | – | CCOc1cc(NC(=O)NNc2cc(C(C)C)c3c(n2)c(C)nn3C)cc(Cl)n1 [Example 4, N-(2-chloro-6-ethoxypyridin-4-yl)-2-(7-isopropyl-1,3-dimethyl-1H-pyrazolo[4,3-b]pyridin-5-yl)hydrazinecarboxamide]
9.9 nM | > 8300 nM | > 8300 nM | 58 nM | (98) % | COc1cc(NC(=O)NCc2cc(C(C)C)c3c(n2)c(C)nn3C)cc(Cl)n1 [Example 10, 1-(2-chloro-6-methoxypyridin-4-yl)-3-((7-isopropyl-1,3-dimethyl-1H-pyrazolo[4,3-b]pyridin-5-yl)methyl)urea]
5 nM | > 8300 nM | > 8300 nM | 9 nM | (98) % | CCCc1cc(NC(=O)NNc2cc(C(C)C)c3c(n2)c(C)nn3C)cc(Cl)n1 [Example 11, N-(2-chloro-6-propylpyridin-4-yl)-2-(7-isopropyl-1,3-dimethyl-1H-pyrazolo[4,3-b]pyridin-5-yl)hydrazinecarboxamide]
0.5 nM | > 8300 nM | > 8300 nM | – | – | CCOc1cc(NC(=O)NCc2cc(C(C)C)c3c(n2)c(C)nn3C)cc(Cl)n1 [Example 13, 1-(2-chloro-6-ethoxypyridin-4-yl)-3-((7-isopropyl-1,3-dimethyl-1H-pyrazolo[4,3-b]pyridin-5-yl)methyl)urea]
0.2 nM | > 8300 nM | > 8300 nM | – | – | CCCOc1cc(NC(=O)NNc2cc(C(C)C)c3c(n2)c(C)nn3C)cc(Cl)n1 [Example 15, N-(2-chloro-6-propoxypyridin-4-yl)-2-(7-isopropyl-1,3-dimethyl-1H-pyrazolo[4,3-b]pyridin-5-yl)hydrazinecarboxamide]
40 nM | > 8300 nM | > 8300 nM | – | – | COc1cc(OC)c(NC(=O)NNc2cc(C(C)C)c3c(n2)c(C)nn3C)cc1Cl [Example 19, N-(5-chloro-2,4-dimethoxyphenyl)-2-(7-isopropyl-1,3-dimethyl-1H-pyrazolo[4,3-b]pyridin-5-yl)hydrazinecarboxamide]
81 nM | > 8300 nM | > 8300 nM | – | – | CC(C)c1cc(NNC(=O)Nc2cc(Cl)cc(Cl)c2)nc2ncccc12 [Example 21, N-(3,5-dichlorophenyl)-2-(4-isopropyl-1,8-naphthyridin-2-yl)hydrazinecarboxamide]
390 nM | > 8300 nM | > 8300 nM | – | – | Cc1cc(NNC(=O)Nc2cc(Cl)nc(Cl)c2)nc2c(C)cccc12 [Example 24, N-(2,6-dichloropyridin-4-yl)-2-(4,8-dimethylquinolin-2-yl)hydrazinecarboxamide]
451 nM | > 8300 nM | > 8300 nM | – | – | Cc1cc(NNC(=O)Nc2cc(Cl)cc(Cl)c2)nc2c(C)cccc12 [Example 25, N-(3,5-dichlorophenyl)-2-(4,8-dimethylquinolin-2-yl)hydrazinecarboxamide]
196 nM | > 8300 nM | > 8300 nM | – | – | Cc1cc(NNC(=O)Nc2cc(Cl)nc(Cl)c2)nc2ccccc12 [Example 26, N-(2,6-dichloropyridin-4-yl)-2-(4-methylquinolin-2-yl)hydrazinecarboxamide]
386 nM | > 8300 nM | > 8300 nM | – | – | Cc1ccc(C)c2c(C)cc(NNC(=O)Nc3cc(Cl)cc(Cl)c3)nc12 [Example 27, N-(3,5-dichlorophenyl)-2-(4,5,8-trimethylquinolin-2-yl)hydrazinecarboxamide]

Further lines, the molecule ahead of its results:

Molecule | EC50 [1] | EC50 [2] | EC50 [3] | EC50 [4] | FLIPR (% Antagonism) S1P2 [4]
1-(2-chloro-6-propoxypyridin-4-yl)-3-((7-isopropyl-1,3-dimethyl-1H-pyrazolo[4,3-b]pyridin-5-yl)methyl)urea [Example 14] | 0.5 nM | > 8300 nM | > 8300 nM | – | –
Cc1nn(C)c2c(C(C)C)cc(NNC(=O)Nc3cc(Cl)cc(Cl)c3)nc12 [Example 1, N-(3,5-dichlorophenyl)-2-(7-isopropyl-1,3-dimethyl-1H-pyrazolo[4,3-b]pyridin-5-yl)hydrazinecarboxamide] | 2.9 nM | > 8300 nM | > 8300 nM | 47 nM | (96) %
Cc1nn(C)c2c(C)cc(CNC(=O)Nc3cc(Cl)cc(Cl)c3)nc12 [Example 5, 1-(3,5-dichlorophenyl)-3-((1,3,7-trimethyl-1H-pyrazolo[4,3-b]pyridin-5-yl)methyl)urea] | – | > 8300 nM | > 8300 nM | 135 nM | (82) %
Cc1nn(C)c2c(C(C)C)cc(NNC(=O)Nc3cc(Cl)nc(Cl)c3)nc12 [Example 6, N-(2,6-dichloropyridin-4-yl)-2-(7-isopropyl-1,3-dimethyl-1H-pyrazolo[4,3-b]pyridin-5-yl)hydrazinecarboxamide] | 2.2 nM | > 8300 nM | > 8300 nM | 11 nM | (95) %
Cc1nn(C)c2c(C(C)C)cc(NNC(=O)Nc3cc(C(F)(F)F)cc(C(F)(F)F)c3)nc12 [Example 7, N-(3,5-bis(trifluoromethyl)phenyl)-2-(7-isopropyl-1,3-dimethyl-1H-pyrazolo[4,3-b]pyridin-5-yl)hydrazinecarboxamide] | – | > 8300 nM | > 8300 nM | 196 nM | (98) %
Cc1nn(C)c2c(C(C)C)cc(CNC(=O)Nc3cc(Cl)cc(Cl)c3)nc12 [Example 9] | 26.4 nM | > 8300 nM | > 8300 nM | 149 nM | (52) %
CCCc1cc(NC(=O)NCc2cc(C(C)C)c3c(n2)c(C)nn3C)cc(Cl)n1 [Example 12, 1-(2-chloro-6-propylpyridin-4-yl)-3-((7-isopropyl-1,3-dimethyl-1H-pyrazolo[4,3-b]pyridin-5-yl)methyl)urea] | 2.1 nM | > 8300 nM | > 8300 nM | 24 nM | (99) %
CCCCOc1cc(NC(=O)NNc2cc(C(C)C)c3c(n2)c(C)nn3C)cc(Cl)n1 [Example 16, N-(2-butoxy-6-chloropyridin-4-yl)-2-(7-isopropyl-1,3-dimethyl-1H-pyrazolo[4,3-b]pyridin-5-yl)hydrazinecarboxamide] | 0.1 nM | > 8300 nM | > 8300 nM | – | –
CCCCOc1cc(NC(=O)NCc2cc(C(C)C)c3c(n2)c(C)nn3C)cc(Cl)n1 [Example 17, 1-(2-butoxy-6-chloropyridin-4-yl)-3-((7-isopropyl-1,3-dimethyl-1H-pyrazolo[4,3-b]pyridin-5-yl)methyl)urea] | 0.1 nM | > 8300 nM | > 8300 nM | – | –
CCOc1cc(NC(=O)NNc2cc(C(C)C)c3c(n2)c(C)nn3C)ccn1 [Example 18, N-(2-ethoxypyridin-4-yl)-2-(7-isopropyl-1,3-dimethyl-1H-pyrazolo[4,3-b]pyridin-5-yl)hydrazinecarboxamide] | 266 nM | > 8300 nM | > 8300 nM | – | –
Cc1cc(NNC(=O)Nc2cc(Cl)cc(Cl)c2)nc2ncccc12 [Example 20, N-(3,5-dichlorophenyl)-2-(4-methyl-1,8-naphthyridin-2-yl)hydrazinecarboxamide] | 196 nM | > 8300 nM | > 8300 nM | – | –
Cc1ccc(C)c2c(C(C)C)cc(NNC(=O)Nc3cc(Cl)cc(Cl)c3)nc12 [Example 22, N-(3,5-dichlorophenyl)-2-(4-isopropyl-5,8-dimethylquinolin-2-yl)hydrazinecarboxamide] | 199 nM | > 8300 nM | > 8300 nM | – | –
CC(C)c1cc(NNC(=O)Nc2cc(Cl)cc(Cl)c2)nc2ccccc12 [Example 23, N-(3,5-dichlorophenyl)-2-(4-isopropylquinolin-2-yl)hydrazinecarboxamide] | 188 nM | > 8300 nM | > 8300 nM | – | –

Source: patent publication US8703797B2, “Condensed ring pyridine compounds as subtype-selective modulators of sphingosine-1-phosphate-2 (S1P2) receptors” (Allergan, Inc., priority 2009, dated 2014)
